Columns and labels:
[1] = test system: type I collagen in CCD-10595K cells; experiment: Collagen production by immunohistochemistry (anti-type I collagen) in fibroblasts; format: cell-based, human; details: sesaminol 15 or 30 μg/ml, 24 hours
Method: Cells of human normal skin-derived fibroblast CCD-10595K strain (purchased from DS Pharma Biomedical Co., Ltd.) were inoculated at a density of 3.0×10^4 cells/ml in a plastic dish having a diameter of 35 mm and cultured in a 5% CO2 incubator at 37° C. The medium used was the same medium as in Example 1. After 1 or 2 days, the medium was replaced with the medium containing the sesaminol solution so as to contain sesaminol at a final concentration of 15 or 30 μg/ml and the cells were incubated for 24 hours in a 5% CO2 incubator at 37° C. As a control, incubation was carried out using the medium without sesaminol solution.
After the incubation, cells were washed three times with PBS. Cells were then fixed in 4% paraformaldehyde and stored overnight at 4° C. The fixed cells were treated with 0.1% Triton®-X100 diluted in PBS for 5 minutes and washed with PBS for 5 minutes. The treated cells were blocked in 3% H2O2 and washed with PBS for 5 minutes. The cells were further blocked in 10% normal goat serum and washed with PBS for 5 minutes. A rabbit anti-type I collagen antibody (LSL) diluted 200-fold in PBS was added to the cells on a slide glass which were then incubated for 1 hour and washed with PBS for 5 minutes. […] The prepared slide was analysed on OLYMPUS IX-70 and images of stained cells were obtained.

[2] = test system: elastin in CCD-10595K cells; experiment: Elastin production by western blot analysis in fibroblasts; format: cell-based, human; details: sesaminol 15 or 30 μg/ml, 24 hours
Method: (§1) Cells of human normal skin-derived fibroblast CCD-10595K cells (purchased from DS Pharma Biomedical Co., Ltd.) were inoculated in a plastic dish having a diameter of 35 mm and cultured until they reached confluence in a 5% CO2 incubator at 37° C. Thereafter, the medium was replaced with the medium containing the sesaminol solution so as to contain sesaminol at a final concentration of 15 or 30 μg/ml and the cells were incubated for 24 hours in a 5% CO2 incubator at 37° C. The medium used was the same medium as in Example 1. The medium was replaced every two days until the cells reached confluence. As a control, incubation was carried out using the medium without sesaminol solution.
(§2) After the incubation, cells were washed twice with PBS and collected into a 1.5-ml tube using a cell scraper. […] An aliquot of the collected supernatant was subjected to protein quantification using Serva Blue G (Serva Electrophoresis GmbH) based on the absorbance at 595 nm in order to calculate the amount of sample applied to electrophoresis.
(§3) Equal volumes of the supernatant containing cell lysate and a sample buffer were mixed and heated at 90° C. for 5 minutes to prepare a sample for electrophoresis. […] The ratio of the band intensity of type I collagen or elastin relative to the band intensity of β-actin was calculated for the samples.

[3] = test system: various cell lines used in Examples; experiment: Toxicity and viability check on the cell lines used in Examples; format: cell-based; details: sesaminol solution (3.0 mg/ml in DMSO)
Method: The highly concentrated sesaminol solution was dissolved in dimethyl sulphoxide (DMSO) to prepare a sesaminol solution (3.0 mg/ml) to be used in Examples.

[4] = test system: type I collagen in CCD-10595K cells; experiment: Collagen production by western blot analysis in fibroblasts; format: cell-based, human; details: sesaminol 15 or 30 μg/ml, 24 hours
Method: as §1, §2, §3

[5] = test system: human normal skin-derived keratinocyte HaCaT cells; experiment: Scratch (wound healing) assay of keratinocyte migration; format: cell-based; details: 24 hours, control = 100
Method: Cells of human normal skin-derived keratinocyte HaCaT cells were inoculated at a density of 5.0×10^5 cells/dish in a plastic dish having a diameter of 35 mm with a mark on the bottom and cultured until they reached confluence in a 5% CO2 incubator at 37° C. The culture medium used was Dulbecco's modified Eagle's medium (DMEM: Nissui Pharmaceutical Co., Ltd.) containing 10% fetal bovine serum (FBS: Nichirei Biosciences, Inc.), penicillin (50 units/ml, Meiji Co., Ltd.) and streptomycin ([…], Meiji Co., Ltd.). The medium was replaced every two days.
After culturing the cells until they reached confluence, cells in the dish were scraped with a chip and a linear wound pattern was formed therewith. Immediately thereafter, the wound pattern was analysed under an inverted microscope (OLYMPUS IX-70: Olympus Corporation) and photographed. […] The wound pattern was then analysed with OLYMPUS IX-70 and photographed. […]
Based on the obtained photographic images, the width of wound patterns in the samples was measured. […] Based on the measurement results, the repair rate in the region of the wound by sesaminol was calculated. The repair rates for the samples calculated are as follows with the rate for the control being 100.

In the case of `Oc1cc2c(cc1C1OCC3C(c4ccc5c(c4)OCO5)OCC13)OCO2` (stereo not shown) [sesaminol], the “type I collagen staining intensity vs control (FIG. 2)” value [1] is reported as “stained more intensely than the control”, the “expression level of elastin (band intensity ratio to β-actin, control = 1; FIG. 4)” value [2] is reported as “increased” and the “effect on cell viability” value [3] is reported as “did not affect viability”. For the same compound, the “toxicity to cell lines” value [3] was “not toxic”, the “expression level of collagen (band intensity ratio to β-actin, control = 1; FIG. 3)” value [4] was “increased” and the “repair rate in the region of the wound (control being 100)” value ([5]; sesaminol 15 μg/ml) was 121.7±25.6. The “repair rate in the region of the wound (control being 100)” value ([5]; sesaminol 30 μg/ml) was 139.1±20.6.
